Among the data in patent publication US20120230951A1 (priority 2011, published 2012) are IC50 values, retold here.

Structures can show the parent of a compound that is named as a salt.

In the experiment the test system is GT-1a pRLuc H771b 75 S/I subgenomic replicon cell line. The experiment in a line: HCV GT-1a replicon luciferase reporter assay. In kind it is cell-based. Particulars: Hepatitis C virus, GT1A, 72 h, read-out: GT-1a (IC50) (nM). From the text: Determination of compounds HCV GT1b inhibitory replicon activity using the replicon luciferase reporter assay
The 2209-23 cell line was developed at Roche by stable transfection of the hepatoma cell line Huh-7 with a GT-1b Con1 subgenomic bicistronic replicon as previously described. Subgenomic replicon cell line was established in cured Huh7 cells, obtained from R. Bartenschlager (J. Virol. 2003 March; 77 (5):3007-19) The GT-1a H77 subgenomic replicon vector pRLuc H771b 75 S/I, was created by replacing the non structural region of the GT-1b Con1 subgenomic replicon by the one of the H77 strain, except for the first 75 amino acids of the NS3 protein that are from GT-1b Con1 strain. (J. Virol. 2001 77:5352-59) The GT-1a pRLuc H771b 75 S/I subgenomic replicon cell line was established in cured Huh7 cells, obtained from R. Bartenschlager. (J. Virol. 2003 March; 77 (5):3007-19)
All the subgenomic replicon cell lines were cultured in Dulbecco's Modified Eagle Medium (DMEM-Glutamax™-I; Invitrogen Cat #10569-010). The medium was supplemented with 10% Fetal Bovine Serum (Invitrogen Cat #10082-147), 1% penicillin/streptomycin (Mediatech Cat #30-002-CI) and 500 μg/ml of G418 (Mediatech Cat #30-234-CI). Cells were maintained at 37° C. in a humidified 5% CO2 atmosphere.
2209-23 cells were plated at a cell density of 5000 cells per well in 96 well plates (Becton Dickinson, Cat #35 3296). Cells were plated in 90 μl of Dulbecco's Modified Eagle Medium (DMEM-Glutamax™-I), (Invitrogen Cat #10569-010) medium was supplemented with 5% Fetal Bovine Serum (Invitrogen Cat #10082-147), 1% penicillin/streptomycin (Mediatech Cat #30-002-CI). The pRluc H771b 75 S/I cells were plated in 96-well plate at 3000 cells/well in DMEM-Glutamax™-I containing 5% FBS and 1% penicillin/streptomycin in 90 μl final volume. Cells were allowed to equilibrate for 24 hours at 37° C. and 5% CO2 at which time compounds were added. Compounds (or medium as a control) were added 24 hours post-plating in 3 fold dilutions at a final DMSO concentration of 1% in 10 ul volume. Renilla luciferase reporter signal was read 72 hours after addition of compounds using the Renilla Luciferase Assay System (Promega, cat #E2820). EC50 values were defined as the compound concentration at which a 50% reduction in the levels of renilla luciferase reporter was observed as compared to control samples in the absence of compound and was determined by non-linear fitting of compound dose-response data. The EC50 was approximated if maximum percentage inhibition was less than 90% and more than 70%.
With `CC[C@H](C)[C@H](NC(=O)OC)C(=O)N1CCC[C@H]1c1ncc(-c2ccc3nc(-c4ccc(-c5cnc([C@@H]6Cc7cccc8c7N6C(=O)[C@@H](NC(=O)OC)CC8)[nH]5)cc4)cnc3c2)[nH]1` [Compound I-53, ((2S,5S)-2-{5-[4-(6-{2-[(S)-1-((2S,3S)-2-Methoxycarbonylamino-3-methyl-pentanoyl)-pyrrolidin-2-yl]-3H-imidazol-4-yl}-quinoxalin-2-yl)-phenyl]-1H-imidazol-2-yl}-4-oxo-1,2,4,5,6,7-hexahydroazepino[3,2,1-hi]indol-5yl)-carbamic acid methyl ester], the IC50 was 1.36 nM.

In the case of `CC[C@H](NC(=O)OC)C(=O)N1CCC[C@H]1c1ncc(-c2ccc(-c3ccc(-c4cnc([C@@H]5Cc6cccc7c6N5C(=O)[C@@H](NC(=O)OC)CC7)[nH]4)cc3)cc2)[nH]1` [Compound I-45], the IC50 came out at 17.1 nM.

For `COC(=O)N[C@H]1CCc2cccc3c2N(C1=O)[C@H](c1ncc(-c2ccc(-c4ccc5cc(-c6cnc([C@@H]7CC(F)(F)CN7C(=O)[C@@H](NC(=O)OC)C(C)C)[nH]6)ccc5c4)cc2)[nH]1)C3` [Compound I-42, {(2S,5S)-2-{5-[4-(6-{2-[(S)-4,4-Difluoro-1-((S)-2-methoxycarbonylamino-3-methyl-butyryl)-pyrrolidin-2-yl]-3H-imidazol-4-yl}-naphthalen-2-yl)-phenyl]-1H-imidazol-2-yl}-4-oxo-1,2,4,5,6,7-hexahydo-azepino[3,2,1-hi]indol-5-yl}-carbamic acid methyl ester], the IC50 worked out at 1.17 nM.

Regarding `COC(=O)N[C@H]1CCc2cccc3c2N(C1=O)[C@H](c1ncc(-c2ccc(-c4ccc5cc(-c6cnc([C@@H]7C[C@H](C#N)CN7C(=O)[C@@H](NC(=O)OC)C(C)C)[nH]6)ccc5c4)cc2)[nH]1)C3` [Compound I-41, {(2S,5S)-2-{5-[4-(6-{2-[(2S,4S)-4-Cyano-1-((S)-2-methoxycarbonylamino-3-methyl-butyryl)-pyrrolidin-2-yl]-3H-imidazol-4-yl}-naphthalen-2-yl)-phenyl]-1H-imidazol-2-yl]-4-oxo-1,2,4,5,6,7-hexahydro-azepino[3,2,1-hi]indol-5-yl}-carbamic acid methyl ester], the concentration for half-maximal inhibition (IC50) worked out at 2.49 nM.

Consider `COC(=O)N[C@H]1CCc2cccc3c2N(C1=O)[C@H](c1nc2ccc(-c4ccc(-c5ccc(-c6cnc([C@@H]7CCCN7C(=O)[C@@H](NC(=O)OC)C(C)C)[nH]6)cc5)nc4)cc2[nH]1)C3` [Compound I-12, ((2S,5S)-2-{6-[6-(4-{2-[(S)-1-((S)-2-Methoxycarbonylamino-3-methyl-butyryl)-pyrrolidin-2-yl]-3H-imidazol-4-yl}-phenyl)-pyridin-3-yl]-1H-benzoimidazol-2-yl}-4-oxo-1,2,4,5,6,7-hexahydro-azepino[3,2,1-hi]indol-5-yl)-carbamic acid methyl ester], for which the IC50 came out at 18.6 nM.

Regarding `COC(=O)N[C@H]1CCc2cccc3c2N(C1=O)[C@H](c1ncc(-c2ccc(-c4ccc(-c5cnc([C@@H]6CCCN6C(=O)[C@@H](NC(=O)OC)C6CC6)[nH]5)cc4)cc2)[nH]1)C3` [Compound I-44], the IC50 worked out at 11.4 nM.

In the case of `COC(=O)N[C@H]1CCc2cccc3c2N(C1=O)[C@H](c1ncc(-c2ccc(-c4ccc(-c5cnc([C@@H]6C[C@@H](C#N)CN6C(=O)[C@@H](NC(=O)OC)C(C)C)[nH]5)cc4)cc2)[nH]1)C3` [Compound I-39, {(2S,5S)-2-[5-(4′-{2-[(2S,4R)-4-Cyano-1-((S)-2-methoxycarbonylamino-3-methyl-butyryl)-pyrrolidin-2-yl]-3H-imidazol-4-yl}-biphenyl-4-yl)-1H-imidazol-2-yl]-4-oxo-1,2,4,5,6,7-hexahydro-azepino[3,2,1-hi]indol-5-yl}-carbamic acid methyl ester], the IC50 worked out at 5.34 nM.

Turning to `COC(=O)N[C@H]1CCc2cccc3c2N(C1=O)[C@H](c1ncc(-c2cnc(-c4ccc(-c5cnc([C@@H]6CCCN6C(=O)[C@@H](NC(=O)OC)C(C)C)[nH]5)cc4)nc2)[nH]1)C3` [Compound I-15, ((2S,5S)-2-{5-[2-(4-{2-[(S)-1-((S)-2-Methoxycarbonylamino-3-methyl-butyryl)-pyrrolidin-2-yl]-3H-imidazol-4-yl}-phenyl)-pyrimidin-5-yl]-1H-imidazol-2-yl}-4-oxo-1,2,4,5,6,7-hexahydro-azepino[3,2,1-hi]indol-5-yl)-carbamic acid methyl ester], the IC50 was found to be 13.4 nM.

As to `COCC[C@H](NC(=O)OC)C(=O)N1CCC[C@H]1c1ncc(-c2ccc(-c3ccc(-c4cnc([C@@H]5Cc6cccc7c6N5C(=O)[C@@H](NC(=O)OC)CC7)[nH]4)cc3)cc2)[nH]1` [Compound I-46], the IC50 is 2.96 nM.

Turning to `COC[C@H](NC(=O)OC)C(=O)N1CCC[C@H]1c1ncc(-c2ccc(-c3ccc(-c4cnc([C@@H]5Cc6cccc7c6N5C(=O)[C@@H](NC(=O)OC)CC7)[nH]4)cc3)cc2)[nH]1` [Compound I-43], the IC50 worked out at 5.64 nM.

For `COC(=O)N[C@H]1CCc2cccc3c2N(C1=O)[C@H](c1ncc(-c2ccc(-c4cnc5cc(-c6cnc([C@@H]7CCCN7C(=O)[C@@H](NC(=O)OC)C(C)(C)C)[nH]6)ccc5n4)cc2)[nH]1)C3` [Compound I-54, ((2S,5S)-2-{5-[4-(6-{2-[(S)-1-((S)-2-Methoxycarbonylamino-3,3-dimethyl-butyryl)-pyrrolidin-2-yl]-3H-imidazol-4-yl}-quinoxalin-2-yl)-phenyl]-1H-imidazol-2-yl}-4-oxo-1,2,4,5,6,7-hexahydro-azepino[3,2,1-hi]indol-5-yl)-carbamic acid methyl ester], the half-inhibitory concentration (IC50) is 0.949 nM.

For the compound `COC(=O)N[C@H]1CCc2cccc3c2N(C1=O)[C@H](c1ncc(-c2cnc4cc(-c5ccc(-c6cnc([C@@H]7CCCN7C(=O)[C@@H](NC(=O)OC)C(C)C)[nH]6)cc5)ccc4c2)[nH]1)C3` [Compound I-18, ((2S,5S)-2-{5-[7-(4-{2-[(S)-1-((S)-2-Methoxycarbonylamino-3-methyl-butyryl)-pyrrolidin-2-yl]-3H-imidazol-4-yl}-phenyl)-quinolin-3-yl]-1H-imidazol-2-yl}-4-oxo-1,2,4,5,6,7-hexahydro-azepino[3,2,1-hi]indol-5-yl)-carbamic acid methyl ester trifluoacetic acid salt], the IC50 amounted to 21.6 nM.

For the compound `COC(=O)N[C@H]1CCc2cccc3c2N(C1=O)[C@H](c1ncc(-c2ccc(-c4ccc(-c5cnc([C@@H]6CCCN6C(=O)[C@@H](NC(=O)OC)C(C)C)[nH]5)cc4C#N)cc2)[nH]1)C3` [Compound I-38, {(2S,5S)-2-[5-(2′-Cyano-4′-{2-[(S)-1-((S)-2-methoxycarbonylamino-3-methyl-butyryl)-pyrrolidin-2-yl]-1H-imidazol-4-yl}-biphenyl-4-yl)-1H-imidazol-2-yl]-4-oxo-1,2,4,5,6,7-hexahydro-azepino[3,2,1-hi]indol-5-yl}-carbamic acid methyl ester], the IC50 was 22.4 nM.

As to `COC(=O)N[C@H]1CCc2cccc3c2N(C1=O)[C@H](c1ncc(-c2ccc(-c4ccc(-c5cnc(C6C7CC7CN6C(=O)[C@H](NC(=O)OC)c6ccccc6)[nH]5)cc4)cc2)[nH]1)C3` (stereo partly drawn) [Compound I-65, {(2S,5S)-2-[5-(4′-{2-[(S)-3-((R)-2-Methoxycarbonylamino-2-phenyl-acetyl)-3-aza-bicyclo[3.1.0]hex-2-yl]-3H-imidazol-4-yl}-biphenyl-4-yl)-1H-imidazol-2-yl]-4-oxo-1,2,4,5,6,7-hexahydro-azepino[3,2,1-hi]indol-5-yl}-carbamic acid methyl ester], the IC50 worked out at 67.2 nM.

Regarding `CC[C@H](C)[C@H](NC(=O)OC)C(=O)N1CCC[C@H]1c1ncc(-c2ccc(-c3cnc4cc(-c5cnc([C@@H]6Cc7cccc8c7N6C(=O)[C@@H](NC(=O)OC)CC8)[nH]5)ccc4n3)cc2)[nH]1` [Compound I-56, ((2S,5S)-2-{5-[2-(4-{2-[(S)-1-((2S,3S)-2-Methoxycarbonylamino-3 methyl-pentanoyl)-pyrrolidin-2-yl]-3H-imidazol-4-yl}-phenyl)quinoxalin-6-yl]-1H-imidazol-2-yl}-4-oxo-1,2,4,5,6,7-hexahydro-azepino[3,2,1-hi]indol-5-yl)-carbamic acid methyl ester], the IC50 turned out to be 3 nM.
